# Read-outs that look alike come from different tables or passages of the source.
# Tests used:
# [1] = Equilibrium dialysis, free fraction in plasma; type: in vitro ADME, mouse; details: matrix not given
# Method: In brief, a 96-well equilibrium dialysis apparatus was used to determine the free fraction in plasma and the brain (HT Dialysis LLC, Gales Ferry, CT). Isotonic buffer was prepared using 8.69 g of Na2HPO4, 1.9 g of KH2PO4, and 4.11 g of NaCl dissolved in 1 L of Milli-Q water, and the pH was adjusted to 7.4. Artificial CSF was prepared using 3.652 g of NaCl, 93.2 mg of KCl, 119.96 mg of MgCl2, 92.61 mg of CaCl2, and 268 mg of Na2HPO4 heptahydrate dissolved in 0.5 L of water, and the pH was adjusted to 7.4. Membranes [12–14 (plasma) or 6–9 (brain) kDA cutoff] were conditioned in deionized water for 60 min, followed by conditioning in 80:20 deionized water/ethanol for 20 min, and then rinsed in isotonic buffer (plasma) or […] (brain) before use. Female CD1 mouse plasma was defrosted and centrifuged for 10 min at 3000 rpm (Allegra X12-R, Beckman Coulter, USA). The control mouse brain was homogenized in two volumes of artificial CSF in a Covaris S2 acoustic homogenizer. Plasma or brain homogenate was spiked with the test compound (10 μg mL^–1), and 150 μL aliquots (n = 3 replicate determinations) were loaded into the 96-well equilibrium dialysis plate. Dialysis versus 150 μL of isotonic buffer (plasma) or artificial CSF (brain) was carried out for 5 h in a temperature-controlled incubator at 37 °C (Barworld Scientific Ltd, UK) using an orbital microplate shaker at 125 rpm (Barworld Scientific Ltd, UK). At the end of the incubation period, aliquots of plasma/homogenized brain or buffer were transferred to a clean 96-well plate, and the composition in each well was balanced with control fluid, such that the volume of buffer to the matrix was the same. Sample extraction was performed by the addition of 400 μL of acetonitrile containing an appropriate internal standard. Samples were allowed to mix for 1 min and then centrifuged at 3000 rpm in 96-well blocks for 10 min (Allegra X12-R, Beckman Coulter, USA). All samples were analyzed by means of UPLC/MS/MS on a Quattro Premier XE or Micro TQs mass spectrometer (Waters Corporation, USA). The unbound fraction was determined as the ratio of the peak area in the buffer to that in the matrix.
# Pharmacokinetics in rats = type: in vivo, Sprague Dawley rats
# Method: To determine compound exposure, compounds were dosed by gavage (16, 38) at 10 mg kg^–1 free base (16, 38), dose volume; and 5 mL kg^–1 (16, 38), dose vehicle (10% DMSO/40% PEG400/50% Milli-Q) to female NMRI mice, n = 3/dose level (16), or Sprague Dawley rats (38). Blood samples were taken from each mouse/rat at 5, 15, and 30 min, 1, 2, 4, 6, and 8 h postdose and mixed with two volumes of distilled water. After suitable sample preparation, the concentration of the test compound in blood was determined by UPLC–MS/MS using a Quattro Premier XE (Waters, USA). Pharmacokinetic parameters were derived from the mean blood concentration–time curve using PKsolutions software v 2.0 (Summit Research Services, USA).
# [2] = Kinetic aqueous solubility (laser nephelometry); type: physicochemical; details: Milli-Q water with 2.5% DMSO
# Method: The kinetic aqueous solubility of the test compounds was measured using laser nephelometry. Compounds were subject to serial dilution from 10 to 0.5 mM in DMSO. An aliquot was then mixed with Milli-Q water to obtain an aqueous dilution plate with a final concentration range of 13–250 μM, with a final DMSO concentration of 2.5%. Triplicate aliquots were transferred to a flat-bottomed polystyrene plate which was immediately read on the NEPHELOstar (BMG Lab Technologies). The amount of laser scatter caused by insoluble particulates (relative nephelometry units, RNUs) was plotted against compound concentration using a segmental regression fit, with the point of inflection being quoted as the compound’s aqueous solubility (μM).
# T. brucei wild-type = experiment: Drug sensitivity, wild-type parental line; type: cell-based, T. b. brucei; details: Trypanosoma brucei; weighted mean of ≥3 independent experiments
# Method: (§1) Drug sensitivity assays were carried out with BSF T. b. brucei “single marker” S427 or BSF T. b. brucei, Lister 427, MiTat 1.2, clone 221a 2T1 cells,[45] cells grown at 37 °C with 5% CO2 in an HMI-9T medium[46] as previously described.[47] 2T1 cells were initially maintained with 1 μg mL^–1 puromycin and 1 μg mL^–1 phleomycin prior to transfection or 2.5 μg mL^–1 hygromycin and 1 μg mL^–1 phleomycin after transfection. Induction of overexpression was achieved by the addition of 1 μg mL^–1 tetracycline to the culture medium.
# Compound-resistant cell lines were generated by subculturing a clone of T. brucei in the continuous presence of 38. Starting at sublethal concentrations, drug concentrations in two independent cultures were increased in a stepwise manner, usually 2-fold. When parasites were able to survive and grow in concentrations of drugs equivalent to more than 10 times the established EC50 value, the resulting cell lines were cloned by limiting dilution in the presence of the compound. Two clones (RES I-II) were selected for further biological study. A standard alkaline lysis protocol was used to isolate genomic DNA from compound-resistant bloodstream T. brucei parasites (∼1 × 10^8). Whole genome sequencing was performed using a DNB-seq next-generation sequencing platform (BGI, Hong Kong). Sequencing reads (150 bp) were aligned to the T. brucei TREU927 genome (v39; tritrypDB) using Bowtie2[48] and Samtools[49] software. […] Samtools and BCFtools[52] (mpileup) were used to call SNP and indels compared with the wild-type starter clone, where the overall quality score (QUAL) was >100. Artemis[50] was used to analyze chromosome and gene copy number variation, as well as visualization of SNPs.
# [3] = test system: Tb927.8.6290 overexpressing cell lines (V241F/A258V); experiment: Drug sensitivity, line overexpressing Tb927.8.6290 V241F/A258V; type: cell-based, T. b. brucei; details: for EC50: Trypanosoma brucei
# Method: as §1
# The following primers were used to PCR amplify Tb927.8.6290 from genomic DNA isolated from wild-type and 38-resistant trypanosomes 5′-[…]-3′ (PacI site in bold) and 5′-[…]-3′ (BamHI site in bold). The PCR products (1272 bp) were then cloned into the pRPa plasmid.[53] The accuracy of the plasmid constructs was confirmed by in-house Sanger sequencing and then linearized with AscI prior to transfection. The linearized plasmids were introduced into 2T1 T. b. brucei cells following removal of puromycin from the media and selected with 2.5 μg mL^–1 hygromycin and 1 μg mL^–1 phleomycin. Two independent clones were selected for further studies.
# [4] = male, Sprague Dawley, whole blood, rat, PO, 10 mg kg^–1
Molecule,Fu (free fraction) [1],"free blood Cmax (Pharmacokinetics in rats; male SD rats, 10 mg kg^–1 PO) [ng mL^–1]",AUC (Pharmacokinetics in rats; [4]) [ng·h/mL],Cmax (Pharmacokinetics in rats; [4]) [ng/mL],Tmax (Pharmacokinetics in rats; [4]) [h],solubility [2] [µg/mL],EC50 (T. brucei wild-type) [µM],"EC50 ([3]; read-out: EC50, V241F/A258V +TET) [µM]","EC50 ([3]; read-out: EC50, V241F/A258V –TET) [µM]","fold shift, V241F/A258V ([3]; −TET vs +TET EC50, in brackets)"
"(4-Amino-2-(cyclohexylamino)thiazol-5-yl)(2,6-difluorophenyl)methanone [Compound 16]",0.03,,,,,,,,,
"CC(C)(O)CC(=O)c1sc(Nc2ccc(F)c(F)c2)nc1N [Compound 38, 1-(4-Amino-2-((3,4-difluorophenyl)amino)thiazol-5-yl)-3-hydroxy-3-methylbutan-1-one]",,195,7830,1400,4,> 100,0.31 ± 0.004,12 ± 0.69,0.27 ± 0.018,45
